Experimental data published in US12213479B2, “Monoterpenoid/phenylpropanoid-containing compounds and methods of their making and use as herbicides” (KITTRICH CORPORATION, priority 2016, dated 2025).

What was measured:
Soybean plants [1] = assay: Soil drench assay, soybean plants; assay type: in vivo; parameters: key: NOE: No Observable Effect; XXX: Dead; -: the lowest phytotoxic effect; --: phytotoxicity that did not result in death; ---: phytotoxicity that did not result in death; ------: the highest; conditions: 3-weeks after treatment, Old Plants, 7%, 40 mL
[2] = system: Velvetleaf (Abutilon theophrasti); assay: Weed soil drench assay, velvetleaf; assay type: in vivo; conditions: for Percentage mortality: Velvet Leaf, 40 mL of 5% solution, soil drench; for chlorosis and phytotoxicity: velvet leaf, 40 ml of 5%, 2 days after application
Experimental: (§1) Velvetleaf plants were obtained from the wild in prairie fields in Iowa. Plants were carefully transplanted into pots (6″ wide×4.5″ deep) with approximately 800 mL of soil for each plant. Plants were maintained in a greenhouse under a constant temperature and light environment (25±5° C., 12 hr: 12 hr light: dark cycle). Plants were watered every 2-3 days as needed.
(§2) Formulations of the various active ingredients were created using the monoterpenoid derivatives, potassium hydroxide, and Triton-X 100™ to aid in the solvation of the active ingredient. Formulations included 5% active ingredient by weight (0.5-1 g/100 ml water), with a 1:1 molar ratio of potassium hydroxide used to aid in the solvation (135-269 mg/100 mL for both thymyloxyacetic acid and carvacryloxyacetic acid). […] Observations were performed 2 days and 3 weeks after soil drench to determine the effects of the treatments on the various types and stages of plants. Phytotoxicity is reported as percentage of total plants treated compared to a control treatment that was exposed to a similar formulation (without the active monoterpenoid derivatives).

[3] = system: Lamb's Quarters (Chenopodium album); assay: Weed soil drench assay, lamb's quarters; assay type: in vivo; conditions: for Percentage mortality: Lamb's quarters, 40 mL of 5% solution, soil drench; for chlorosis and phytotoxicity: lamb's quarters, 40 ml of 5%, two days after application
Experimental: (§3) Lamb's quarters seeds were obtained from the Department of Agronomy at Iowa State University. Individual seeds were sown for each pot (6″ wide×4.5″ deep) with approximately 800 mL of soil for each plant. Only plants that germinated were used for the study. Plants were treated 1-2 weeks post emergence. Plants were watered every 2-3 days as needed.
as §2

corn seeds = assay: Germination assay, corn seeds coated with compound; conditions: for corn seed germination at day 3: seed coating
[4] = system: Pigweed (Amaranthus palmeri); assay: Weed soil drench assay, pigweed; assay type: in vivo; conditions: for Percentage mortality: Pigweed, 40 mL of 5% solution, soil drench; for chlorosis and phytotoxicity: pigweed, 40 ml of 5%, 2 days after application
Experimental: as §1, with “Pigweed” for “Velvetleaf”
as §2

Corn plants = assay: Soil drench assay, corn plants; assay type: in vivo; parameters: key to phytotoxicity (qualitative), soil drench: NOE: No Observable Effect; XXX: Dead; -: the lowest phytotoxic effect; --: phytotoxicity that did not result in death; ---: phytotoxicity that did not result in death; ------: the highest; conditions: for phytotoxicity (qualitative), soil drench: Corn, 40 mL
Experimental: Corn plants were planted under ½″ of potting soil and watered every 2-3 days as necessary. Plants were grown in potting plants (6″ wide×4.5″ deep) with approximately 800 mL of soil for each plant. Seeds germinated approximately 4-7 days after being planted. Plants were grown in a greenhouse under a constant temperature and light environment (25±5° C., 12 hr: 12 hr light: dark cycle). Plants were grown until reaching 1-2 weeks old and 3-4 weeks old; these plants served as the “young” and “old” plants in this study, respectively. Formulations of the various active ingredients were created using the monoterpenoid derivatives, potassium hydroxide, and Triton-X 100™ to aid in the solvation of the active ingredient. […] Formulations were applied to the soil next to the base of the stem of the plant to avoid foliar contact. Observations were performed 2 days and 3 weeks after soil drench to determine the effects of the treatments on the various types and stages of plants.

[5] = system: treated weeds from each species; assay: Weed soil drench assay, all treated weed species; assay type: in vivo; conditions: 5% soil drench; observed at two days after the initial treatment
Experimental: as §2

Soybean plants [6] = assay: Soil drench assay, soybean plants; assay type: in vivo; parameters: key to phytotoxicity (qualitative), soil drench: NOE: No Observable Effect; XXX: Dead; -: the lowest phytotoxic effect; --: phytotoxicity that did not result in death; ---: phytotoxicity that did not result in death; ------: the highest; conditions: for phytotoxicity (qualitative), soil drench: Soybean, 40 mL
Experimental: Soybean plants were planted under 1 cm of potting soil and watered every 2-3 days as necessary. Plants were grown in pots (6″ wide×4.5″ deep) with approximately 800 mL of soil for each plant. Seeds germinated approximately 3-5 days after being planted. Plants were grown in a greenhouse under a constant temperature and light environment (25±5° C., 12 hr: 12 hr light: dark cycle). Plants were grown until reaching 1-2 weeks old and 3-4 weeks old; these plants served as the “young” and “old” plants in this study, respectively.
Formulations of the various active ingredients were created using the monoterpenoid derivatives, potassium hydroxide, and Triton-X 100™ to aid in the solvation of the active ingredient. Formulations consisted of 0.5%-1% active ingredient by weight (0.5-1 g/100 ml water), with a 1:1 molar ratio of potassium hydroxide used to aid in the solvation (135-269 mg/100 mL for both thymyloxyacetic acid and carvacryloxyacetic acid). […] Formulations were applied to the soil next to the base of the stem of the plant to avoid foliar contact. Observations were performed 2 days and 3 weeks after soil drench to determine the effects of the treatments on the various types and stages of plants.

[7] = system: Giant Foxtail (Setaria faberi); assay: Weed soil drench assay, giant foxtail; assay type: in vivo; conditions: for Percentage mortality: Giant Foxtail, 40 mL of 5% solution, soil drench; for chlorosis and phytotoxicity: giant foxtail, 40 mL of 5%, 2 days after application
Experimental: as §3, with “Giant foxtail” for “Lamb's quarters”, “Three” for “Individual”
as §2

[8] = 2-days after treatment, Old Plants, 0.50%
[9] = 2-days after treatment, Old Plants, 1%
[10] = 2-days after treatment, Young Plants, 0.50%
[11] = 2-days after treatment, Young Plants, 1%
[12] = 3-weeks after treatment, Old Plants, 0.50%
[13] = 3-weeks after treatment, Old Plants, 1%
[14] = 3-weeks after treatment, Young Plants, 0.50%
[15] = 3-weeks after treatment, Young Plants, 1%
[16] = young plants, 2 days after exposure, both concentrations

SMILES	phytotoxicity (qualitative), soil drench (Soybean plants [1])	Percentage mortality ([2]; 2-days after treatment) [%]	Percentage mortality ([2]; 3-weeks after treatment) [%]	chlorosis and phytotoxicity [2]	Percentage mortality ([3]; 2-days after treatment) [%]	Percentage mortality ([3]; 3-weeks after treatment) [%]	chlorosis and phytotoxicity [3]	corn seed germination at day 3 (corn seeds)	Percentage mortality ([4]; 2-days after treatment) [%]	Percentage mortality ([4]; 3-weeks after treatment) [%]	chlorosis and phytotoxicity [4]	effect on corn plants, soil drench (Corn plants; 3 weeks after exposure)	phytotoxicity (qualitative), soil drench (Corn plants; [8])	phytotoxicity (qualitative), soil drench (Corn plants; [9])	phytotoxicity (qualitative), soil drench (Corn plants; [10])	phytotoxicity (qualitative), soil drench (Corn plants; [11])	phytotoxicity (qualitative), soil drench (Corn plants; [12])	phytotoxicity (qualitative), soil drench (Corn plants; [13])	phytotoxicity (qualitative), soil drench (Corn plants; [14])	phytotoxicity (qualitative), soil drench (Corn plants; [15])	also measured
Cc1ccc(C(C)C)cc1OCC(=O)O [carvacryloxyacetic acid, 2-(5-isopropyl-2-methylphenoxy)acetic acid]	XXX	100	100	significant chlorosis and phytotoxicity	100	100	significant chlorosis and phytotoxicity	some level of germination	100	100	significant chlorosis and phytotoxicity	caused phytotoxicity	-	--	-	-	XXX	XXX	XXX	--	effect on corn plants, soil drench (Corn plants; 3 weeks, 1%): did not cause mortality; effect on corn plants, soil drench (Corn plants; older plants, 2-days, 0.5%): did not cause any significant effects; effect on corn plants, soil drench (Corn plants; [16]): did not show any significant effects; treated weeds killed, each species [5]: 100%; phytotoxicity (qualitative), soil drench (Soybean plants [6]; [8]): --; phytotoxicity (qualitative), soil drench (Soybean plants [6]; [9]): ---; phytotoxicity (qualitative), soil drench (Soybean plants [6]; [10]): ---; phytotoxicity (qualitative), soil drench (Soybean plants [6]; [12]): XXX; phytotoxicity (qualitative), soil drench (Soybean plants [6]; [14]): XXX; phytotoxicity (qualitative), soil drench (Soybean plants [6]; [15]): XXX; Percentage mortality ([7]; 2-days after treatment): 100%; Percentage mortality ([7]; 3-weeks after treatment): 100%; chlorosis and phytotoxicity [7]: significant chlorosis and phytotoxicity
Cc1ccc(C(C)C)c(OCC(=O)O)c1 [thymyloxyacetic acid, 2-(2-isopropyl-5-methylphenoxy)acetic acid]	XXX	100	100	significant chlorosis and phytotoxicity	100	100	significant chlorosis and phytotoxicity	prevented any germination	100	100	significant chlorosis and phytotoxicity	caused phytotoxicity	--	---	-	-	XXX	XXX	XXX	XXX	inhibition of corn seed germination (corn seeds; seed coating 1% weight compound/weight seed, 3, 5, 7 days): second most significant inhibition; effect on corn plants, soil drench (Corn plants; older plants, 2 days after treatment, 0.5% and 1%): significant phytotoxic effects; effect on corn plants, soil drench (Corn plants; [16]): did not show any significant effects; treated weeds killed, each species [5]: 100%; phytotoxicity (qualitative), soil drench (Soybean plants [6]; [8]): -; phytotoxicity (qualitative), soil drench (Soybean plants [6]; [9]): -; phytotoxicity (qualitative), soil drench (Soybean plants [6]; [10]): --; phytotoxicity (qualitative), soil drench (Soybean plants [6]; [11]): ---; phytotoxicity (qualitative), soil drench (Soybean plants [6]; [12]): -; phytotoxicity (qualitative), soil drench (Soybean plants [6]; [14]): XXX; phytotoxicity (qualitative), soil drench (Soybean plants [6]; [15]): XXX; effect on soybean plants, soil drench (Soybean plants [6]; old plant, 3 weeks after exposure, 0.5%): significant wilting and chlorosis; effect on soybean plants, soil drench (Soybean plants [6]; old plants, 3 weeks after exposure, 1%): experienced mortality; mortality of soybean plants, soil drench (Soybean plants [6]; young plants, 3 weeks after exposure): 100%; effect on soybean plants, soil drench (Soybean plants [6]; young plants, 2 days after exposure, 0.5%): Minor inhibition; effect on soybean plants, soil drench (Soybean plants [6]; young plants, 2 days after exposure, 1%): major inhibition; Percentage mortality ([7]; 2-days after treatment): 100%; Percentage mortality ([7]; 3-weeks after treatment): 100%; chlorosis and phytotoxicity [7]: significant chlorosis and phytotoxicity
